In patent publication US20230331718A1, “COMPOSITIONS FOR MODULATING SPLICING” (Skyhawk Therapeutics, Inc., priority 2020, published 2023):

How the values were obtained:
SMN2 Protein = test: SMN Protein Assay (MSD); type: cell-based, human; settings: SMA patient fibroblasts, 48 hours, 0.6 nM to 2.5 µM
Summary of the method: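 SMA patient fibroblasts at 7,000 cells/well treated 48 h with compound from 0.6 nM to 2.5 µM, then lysed. SMN protein in lysate quantified by Mesoscale Discovery immunoassay against an SMN standard curve (19.5 pg/ml–1 µg/ml), giving absolute amounts.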

[1] = system: SMN2 Splicing D7 (SMN Δ7 transcript); test: SMN Quantitative Splicing Assay (qPCR); type: cell-based, human; settings: 24 h, SMA patient fibroblasts (GM03813), 2.5 µM to 0.6 nM
Procedure: Spinal muscular atrophy (SMA) patient fibroblasts (GM03813, Coriell) were plated in 96-well plates at 50,000 cells/well. […] Treated cells were lysed and cDNA synthesized using the Fast Advanced Cells-to-Ct kit (Thermofisher A35378) according to the manufacturer’s instructions. 2 µL of each cDNA were used in qPCR reactions. […] Reactions were run in a Quant Studio 6 qPCR instrument with default settings.

Q: Which EC50 (SMN2 Protein) does the source give for `CCn1cc(F)c2cc(-c3ncc(N(C)[C@@H]4CC5CC(F)(F)C(C4)N5)nn3)c(O)cc2c1=O` (stereo partly drawn) [Compound 211] here?
A: 501 to 10000 nM

Q: What about the IC50 ([1]; Homo sapiens, Fibroblast) of the same molecule?
A: 101 to 500 nM

Q: Which results are given for `CN(c1cnc(-c2cc3ncn(C)c(=O)c3cc2O)nn1)[C@H]1CC2CCC(N2)[C@H]1F` (single isomer, unassigned) [Compound 3B]?
A: EC50 (SMN2 Protein): 0.01 to 15 nM; IC50 ([1]; Homo sapiens, Fibroblast): 0.01 to 15 nM

Q: Which EC50 (SMN2 Protein) does the source give for `Cc1cnc2cc(O)c(-c3ncc(N(C)[C@H]4C[C@@H]5CCC(N5)[C@H]4F)nn3)cc2n1` [Compound 52] here?
A: 0.01 to 15 nM

Q: And the IC50 ([1]; Homo sapiens, Fibroblast)?
A: 16 to 50 nM

Q: What does the source list for `CN(c1cnc(-c2cc3oc(C(F)(F)F)cc(=O)c3cc2O)nn1)[C@H]1C[C@@H]2CCCC(N2)[C@H]1F` [Compound 166]?
A: EC50 (SMN2 Protein): 0.01 to 15 nM; IC50 ([1]; Homo sapiens, Fibroblast): 16 to 50 nM

Q: Which results are given for `CN(c1cnc(-c2cc3c(F)cn(C)c(=O)c3cc2O)nn1)[C@H]1C[C@@H]2CCC(N2)[C@H]1F` [Compound 66, 4-Fluoro-6-(6-{[(2R,3S,5S)-2-fluoro-8-azabicyclo[3.2.1]octan-3-yl](methyl)amino}-1,2,4-triazin-3-yl)-7-hydroxy-2-methylisoquinolin-1-one]?
A: EC50 (SMN2 Protein): 0.01 to 15 nM; IC50 ([1]; Homo sapiens, Fibroblast): 0.01 to 15 nM

Q: `CN(c1cnc(-c2cc3cncnc3cc2O)nn1)C1CC2CCC(N2)[C@H]1F` (stereo partly drawn) [Compound 26] was tested. Which EC50 (SMN2 Protein) did it give?
A: 16 to 50 nM

Q: And the IC50 ([1]; Homo sapiens, Fibroblast)?
A: 51 to 100 nM

Q: How did the EC50 (SMN2 Protein) turn out when `CN(c1cnc(-c2cc3ncn(C(F)F)c(=O)c3cc2O)nn1)[C@H]1CC2CC[C@@H](N2)[C@H]1F` [Compound 195] was run?
A: 0.01 to 15 nM

Q: And the IC50 ([1]; Homo sapiens, Fibroblast)?
A: 0.01 to 15 nM

Q: How did the EC50 (SMN2 Protein) turn out when `CCn1c(C)nc2cc(-c3ncc(N(C)[C@@H]4CC5CC(F)(F)C(C4)N5)nn3)c(O)cc2c1=O` (stereo partly drawn) [Compound 214] was run?
A: 501 to 10000 nM

Q: What about the IC50 ([1]; Homo sapiens, Fibroblast) of the same molecule?
A: 501 to 10000 nM

Q: With `Cc1cc(=O)c2cc(-c3ncc(N(C)[C@@H]4CC5CCCC(N5)[C@@H]4F)nn3)c(O)cc2o1` (stereo partly drawn) [Compound 111] as the molecule, how does the EC50 (SMN2 Protein) read?
A: 51 to 100 nM

Q: What about the IC50 ([1]; Homo sapiens, Fibroblast) of the same molecule?
A: 101 to 500 nM

Q: `CN(c1cnc(-c2cc3ncn(C)c(=O)c3cc2O)nn1)C1CC2CC(F)(F)C(C1)N2` (stereo not drawn) [Compound 144] was tested. Which EC50 (SMN2 Protein) did it give?
A: 0.01 to 15 nM

Q: What about the IC50 [1] of the same molecule?
A: 0.01 to 15 nM

Q: With `CN(c1cnc(-c2cc3cnn(C)c(=O)c3cc2O)nn1)C1CC2CCCC(N2)C1F` (stereo not drawn) [Compound 132] as the molecule, how does the EC50 (SMN2 Protein) read?
A: 51 to 100 nM

Q: And the IC50 [1]?
A: 16 to 50 nM

Q: How did the EC50 (SMN2 Protein) turn out when `CCn1cc(F)c2cc(-c3ncc(N(C)[C@H]4CC5CC(F)(F)C(C4)N5)nn3)c(O)cc2c1=O` (stereo partly drawn) [Compound 212] was run?
A: 501 to 10000 nM

Q: And the IC50 ([1]; Homo sapiens, Fibroblast)?
A: 51 to 100 nM

Q: What does the source list for `CN(c1cnc(-c2cc3ccn(C)c(=O)c3cc2O)nn1)C1CC2CC(F)(F)C(C1)N2` (stereo not drawn) [Compound 142]?
A: EC50 (SMN2 Protein): 0.01 to 15 nM; IC50 [1]: 16 to 50 nM

Q: Which EC50 (SMN2 Protein) does the source give for `CN(c1cnc(-c2cc3ccn(C(F)F)c(=O)c3cc2O)nn1)[C@H]1CC2CCC(N2)[C@H]1F` (stereo partly drawn) [Compound 155] here?
A: 0.01 to 15 nM

Q: And the IC50 ([1]; Homo sapiens, Fibroblast)?
A: 0.01 to 15 nM

Q: Which results are given for `CN(c1cnc(-c2cc3c(F)cn(C)c(=O)c3cc2O)nn1)[C@H]1CC2CC(F)(F)C(C1)N2` (stereo partly drawn) [Compound 210]?
A: EC50 (SMN2 Protein): 0.01 to 15 nM; IC50 ([1]; Homo sapiens, Fibroblast): 0.01 to 15 nM

Q: Which results are given for `CN(c1cnc(-c2cc3c(=O)n(C)ccc3cc2O)nn1)[C@@H]1CC2CC[C@H](N2)[C@@H]1F` [Compound 81]?
A: EC50 (SMN2 Protein): 16 to 50 nM; IC50 ([1]; Homo sapiens, Fibroblast): 51 to 100 nM

Q: For `CCn1ccc2cc(O)c(-c3ncc(N(C)[C@H]4CC5CC[C@@H](N5)[C@H]4F)nn3)cc2c1=O` [Compound 84], which EC50 (SMN2 Protein) is on record?
A: 0.01 to 15 nM

Q: And the IC50 ([1]; Homo sapiens, Fibroblast)?
A: 0.01 to 15 nM

Q: Which EC50 (SMN2 Protein) does the source give for `[2H]C([2H])([2H])n1ccc2cc(-c3ncc(N(C)[C@H]4CC5CCC(N5)[C@H]4F)nn3)c(O)cc2c1=O` (stereo partly drawn) [Compound 157] here?
A: 16 to 50 nM

Q: What about the IC50 ([1]; Homo sapiens, Fibroblast) of the same molecule?
A: 16 to 50 nM

Q: Which results are given for `CN(c1cnc(-c2cc3cnn(C)c(=O)c3cc2O)nn1)C1CC2COCC(C1)N2` (stereo not drawn) [Compound 149]?
A: EC50 (SMN2 Protein): 51 to 100 nM; IC50 ([1]; Homo sapiens, Fibroblast): 0.01 to 15 nM

Q: How did the EC50 (SMN2 Protein) turn out when `Cc1coc2cc(-c3ncc(N(C)C4CC5CCC(N5)[C@H]4F)nn3)c(O)cc2c1=O` (stereo partly drawn) [Compound 28] was run?
A: 0.01 to 15 nM

Q: And the IC50 ([1]; Homo sapiens, Fibroblast)?
A: 0.01 to 15 nM

Q: For `CN(c1cnc(-c2cc3c(=O)n(C)ccc3cc2O)nn1)[C@H]1CC2CC[C@@H](N2)[C@H]1F` [Compound 82], which EC50 (SMN2 Protein) is on record?
A: 0.01 to 15 nM

Q: What about the IC50 ([1]; Homo sapiens, Fibroblast) of the same molecule?
A: 0.01 to 15 nM

Q: Which results are given for `Cc1cc2cc(-c3ncc(N(C)[C@H]4CC5CC[C@@H](N5)[C@H]4F)nn3)c(O)cc2c(=O)n1C` [Compound 206]?
A: EC50 (SMN2 Protein): 0.01 to 15 nM; IC50 ([1]; Homo sapiens, Fibroblast): 0.01 to 15 nM

Q: Which results are given for `CN(c1cnc(-c2cc3ccncc3cc2O)nn1)C1CC2CCC(N2)C1F` (stereo not drawn) [Compound 21]?
A: EC50 (SMN2 Protein): 16 to 50 nM; IC50 ([1]; Homo sapiens, Fibroblast): 101 to 500 nM

Q: Which EC50 (SMN2 Protein) does the source give for `CCc1cc(=O)c2cc(-c3ncc(N(C)[C@@H]4C[C@H]5CCC(N5)[C@@H]4F)nn3)c(O)cc2o1` [Compound 117] here?
A: 16 to 50 nM

Q: And the IC50 ([1]; Homo sapiens, Fibroblast)?
A: 51 to 100 nM

Q: Which results are given for `CN(c1cnc(-c2cc3occc(=O)c3cc2O)nn1)[C@H]1C[C@@H]2COCC(N2)[C@H]1F` [Compound 68]?
A: EC50 (SMN2 Protein): 501 to 10000 nM; IC50 ([1]; Homo sapiens, Fibroblast): 101 to 500 nM

Q: How did the EC50 (SMN2 Protein) turn out when `Cc1cnc2cc(-c3ncc(N(C)[C@H]4C[C@@H]5CCC(N5)[C@H]4F)nn3)c(O)cc2n1` (single isomer, unassigned) [Compound 54] was run?
A: 101 to 500 nM

Q: And the IC50 ([1]; Homo sapiens, Fibroblast)?
A: 16 to 50 nM

Q: Which results are given for `CN(c1cnc(-c2cc3cnn(C)c(=O)c3cc2O)nn1)[C@@H]1CC2CCC(N2)[C@@H]1F` (single isomer, unassigned) [Compound 2A]?
A: EC50 (SMN2 Protein): 0.01 to 15 nM; IC50 ([1]; Homo sapiens, Fibroblast): 0.01 to 15 nM

Q: `Cc1cc(=O)c2cc(-c3ncc(N(C)[C@H]4C[C@@H]5CCC[C@@H](N5)[C@H]4F)nn3)c(O)cc2o1` [Compound 112] was tested. Which EC50 (SMN2 Protein) did it give?
A: 16 to 50 nM

Q: What about the IC50 ([1]; Homo sapiens, Fibroblast) of the same molecule?
A: 16 to 50 nM

Q: Which EC50 (SMN2 Protein) does the source give for `CN(c1cnc(-c2cc3ncccc3cc2O)nn1)[C@H]1C[C@@H]2CCC(N2)[C@H]1F` [Compound 58] here?
A: 16 to 50 nM

Q: What about the IC50 ([1]; Homo sapiens, Fibroblast) of the same molecule?
A: 16 to 50 nM

Q: What does the source list for `CN(c1cnc(-c2cc3c(=O)ccoc3cc2O)nn1)[C@@H]1CC2CC[C@H](N2)[C@@H]1F` [Compound 75]?
A: EC50 (SMN2 Protein): 16 to 50 nM; IC50 ([1]; Homo sapiens, Fibroblast): 101 to 500 nM
